Legend:
human NK1-receptor = human NK1-receptor (Homo sapiens, UniProt P25103); assay: Binding potency of the test substances to NK1-receptors in vitro ([3H]-Substance P displacement); conditions: human NK1-receptor in CHO cell membranes, average of at least three measurements, read-out: pKi, binding potency to NK1-receptors (converted)
Method: 1. Determination of the Binding Potency of the Test Substances to NK1-Receptors in Vitro
The affinity of test compounds for NK1-receptors can be determined by measuring the ability of the test compound to displace a radiolabeled ligand from its specific binding site. The tests were performed at Solvay Pharmaceuticals, Weesp, The Netherlands.
Separation of bound radioactivity from free radioactivity was done by filtration through glass fiber filters (Packard GF/B) with several washings with ice-cold buffer solution. Bound radioactivity was measured with a liquid scintillation counter (total binding).
The inhibition constant (Ki) was calculated according to the Cheng-Prusoff equation, and listed as its negative logarithmic value (pKi). The pKi value describes the potency of a test compound to bind to a receptor.

NK3-receptor = biological target: T1, NK3-receptor (Cavia porcellus, UniProt P30098); assay: Functional NK3-receptor antagonism in ileal preparations isolated from guinea pigs; conditions: guinea pig ileum, [MePhe7]-neurokinin B-induced contraction
T1 construct: from tissue; host or cells: whole animal (Dunkin Hartley guinea pigs), in vivo
T1 sequence (P30098 1-440): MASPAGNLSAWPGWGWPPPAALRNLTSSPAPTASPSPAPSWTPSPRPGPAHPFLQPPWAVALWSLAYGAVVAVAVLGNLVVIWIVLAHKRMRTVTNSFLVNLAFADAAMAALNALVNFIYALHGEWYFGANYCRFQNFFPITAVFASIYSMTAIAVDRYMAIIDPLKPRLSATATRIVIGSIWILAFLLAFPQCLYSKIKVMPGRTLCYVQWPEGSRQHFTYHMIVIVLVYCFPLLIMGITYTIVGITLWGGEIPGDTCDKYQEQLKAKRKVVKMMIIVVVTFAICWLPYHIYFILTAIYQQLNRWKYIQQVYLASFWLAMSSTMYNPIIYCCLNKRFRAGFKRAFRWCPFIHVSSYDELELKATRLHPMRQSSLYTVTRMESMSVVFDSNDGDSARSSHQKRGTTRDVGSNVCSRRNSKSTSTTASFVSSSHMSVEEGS
Method: 7. Determination of Functional NK3-Receptor Antagonism of Test Compounds in Tissue Isolated from Guinea Pigs.
The NK3-antagonistic action of test compounds was tested in ileal preparations isolated from guinea pigs. The preparations were kept in an oxygenated nutrient solution kept at 37° C. For measuring contraction of the longitudinal muscle of the ileum, the preparations were fixed to a hook and connected to force displacement transducers. Contractions were recorded on a pen recorder.
The NK3-receptors were stimulated with the NK3-receptor agonist [MePhe^7]-neurokinin B, causing a contraction of the muscle. Before (predrug) and after the administration of the test compound such contractions were measured and quantified in percent of the predrug contraction. 2-3 concentrations of the test compound were applied showing the inhibition of the receptor stimulation concentration dependently. […] The pIC50 value indicates the inhibitory potency of the test compounds to the NK3-receptor.

NK1-receptor = biological target: T2, NK1-receptor (Cavia porcellus, UniProt P30547); assay: Functional NK1-receptor antagonism in aortic ring preparations isolated from guinea pigs; conditions: Substance P-induced relaxation
T2 construct: from tissue; host or cells: whole animal (Pirbright-White guinea pigs), in vivo
Method: 5. Determination of Functional NK1-Receptor Antagonism of Test Compounds in Tissue Isolated from Guinea Pigs.
The NK1-antagonistic action of test compounds was tested in aortic ring preparations isolated from guinea pigs. The preparations were kept in an oxygenated nutrient solution kept at 37° C. For measuring contraction of the circular vascular muscle, the preparations were fixed to a hook and connected to force displacement transducers. Contractions/relaxations were recorded on a pen recorder. The preparations were given a medium tonus by addition of phenylephrine.
Before (predrug) and after the administration of the test compound such relaxations were measured and quantified in percent of the predrug relaxation. 2-3 concentrations of the test compound were applied showing the inhibition of the receptor stimulation concentration dependently. The concentration of half-maximal inhibition (IC50) and its negative logarithm pIC50=−log(IC50) was calculated. The pIC50 value indicates the inhibitory potency of the test compounds to the NK1-receptor.

T2 sequence (P30547 whole entry): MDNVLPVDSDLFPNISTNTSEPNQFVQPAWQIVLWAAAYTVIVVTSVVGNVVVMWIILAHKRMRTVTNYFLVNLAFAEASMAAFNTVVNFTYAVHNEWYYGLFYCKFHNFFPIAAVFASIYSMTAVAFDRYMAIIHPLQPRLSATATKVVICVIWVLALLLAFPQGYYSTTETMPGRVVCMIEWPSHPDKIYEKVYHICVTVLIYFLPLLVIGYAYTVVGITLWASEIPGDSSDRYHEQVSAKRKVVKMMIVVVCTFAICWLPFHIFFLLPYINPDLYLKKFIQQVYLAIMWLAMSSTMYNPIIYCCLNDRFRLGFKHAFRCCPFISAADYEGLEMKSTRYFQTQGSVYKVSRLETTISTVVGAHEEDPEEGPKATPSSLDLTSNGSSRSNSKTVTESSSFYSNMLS
Chain of human NK1-receptor (P25103 whole entry): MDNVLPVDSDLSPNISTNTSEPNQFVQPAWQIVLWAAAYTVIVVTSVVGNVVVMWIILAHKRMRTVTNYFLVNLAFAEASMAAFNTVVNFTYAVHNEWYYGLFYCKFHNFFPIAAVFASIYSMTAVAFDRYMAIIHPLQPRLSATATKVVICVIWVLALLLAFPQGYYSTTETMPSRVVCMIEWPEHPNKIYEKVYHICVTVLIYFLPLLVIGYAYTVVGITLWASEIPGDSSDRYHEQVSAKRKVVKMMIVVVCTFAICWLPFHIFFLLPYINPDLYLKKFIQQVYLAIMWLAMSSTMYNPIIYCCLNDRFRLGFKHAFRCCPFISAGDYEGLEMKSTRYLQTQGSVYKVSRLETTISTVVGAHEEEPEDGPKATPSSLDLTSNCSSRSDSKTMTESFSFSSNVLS

Row | pA2, functional NK3-antagonism on isolated guinea pig tissue (NK3-receptor) | SMILES | further results
1 | – | CN(C)C(=O)C1(N2CCCCC2)CCN(CC[C@H](CN(C)C(=O)c2ccccc2)c2ccc(Cl)c(Cl)c2)CC1 [compound 1] | Ki (human NK1-receptor): 79.4 nM
2 | 8.5 | CN(C)C(=O)C1(N2CCCCC2)CCN(CC[C@H](CN(C)C(=O)C2CCCCC2)c2ccc(Cl)c(Cl)c2)CC1 [compound 3] | –
3 | – | CN(C)C(=O)C1(N2CCCCC2)CCN(CC[C@H](CN(C)C(=O)c2cc(C#N)c3ccccc3c2)c2ccc(Cl)c(Cl)c2)CC1 [compound 11] | pIC50, functional NK1-antagonism on isolated guinea pig tissue (NK1-receptor): 8.26
4 | 8.0 | CN(C)C(=O)C1(N2CCCCC2)CCN(CC[C@H](CN(C)C(=O)c2ccc(F)cc2)c2ccc(Cl)c(Cl)c2)CC1 [compound 4] | –
